Data published in the Kinase Knowledgebase extract (Sharma et al. 2016).

How the values were obtained:
[1] = target: PIK3CA (human) (UniProt P42336); test: Assessment of PIK3CA Kinase Activity
[2] = target: PIK3CD (Human) (UniProt O00329); test: Assessment of PIK3CD Kinase Activity
Sequence of PIK3CD (Human) (O00329 whole entry, looked up): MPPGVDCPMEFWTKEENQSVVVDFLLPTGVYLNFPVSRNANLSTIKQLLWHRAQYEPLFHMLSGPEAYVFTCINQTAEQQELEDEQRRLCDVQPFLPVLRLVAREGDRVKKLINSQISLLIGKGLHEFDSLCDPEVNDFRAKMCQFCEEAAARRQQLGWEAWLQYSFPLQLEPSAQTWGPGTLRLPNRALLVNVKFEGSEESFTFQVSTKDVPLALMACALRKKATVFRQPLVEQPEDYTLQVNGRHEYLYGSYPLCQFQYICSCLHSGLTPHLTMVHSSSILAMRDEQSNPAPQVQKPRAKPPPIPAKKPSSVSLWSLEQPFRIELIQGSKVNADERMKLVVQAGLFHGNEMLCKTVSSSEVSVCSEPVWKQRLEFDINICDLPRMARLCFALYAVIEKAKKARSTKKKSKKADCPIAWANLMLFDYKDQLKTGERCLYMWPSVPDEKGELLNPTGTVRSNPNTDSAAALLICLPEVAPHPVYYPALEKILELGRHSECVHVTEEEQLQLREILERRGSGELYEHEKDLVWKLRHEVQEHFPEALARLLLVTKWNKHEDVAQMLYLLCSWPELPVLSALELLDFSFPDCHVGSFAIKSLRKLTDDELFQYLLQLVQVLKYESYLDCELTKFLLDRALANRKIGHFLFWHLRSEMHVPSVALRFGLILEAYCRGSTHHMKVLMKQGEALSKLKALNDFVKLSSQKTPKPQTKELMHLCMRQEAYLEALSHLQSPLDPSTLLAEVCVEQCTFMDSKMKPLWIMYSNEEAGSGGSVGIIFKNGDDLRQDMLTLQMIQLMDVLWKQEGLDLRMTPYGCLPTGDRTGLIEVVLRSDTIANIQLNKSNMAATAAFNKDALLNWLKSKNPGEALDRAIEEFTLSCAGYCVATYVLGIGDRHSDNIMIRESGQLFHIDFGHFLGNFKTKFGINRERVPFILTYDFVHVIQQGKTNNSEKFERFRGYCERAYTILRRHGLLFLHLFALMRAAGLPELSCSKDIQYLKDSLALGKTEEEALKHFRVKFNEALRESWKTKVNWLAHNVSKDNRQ

Sequence of PIK3CA (human) (P42336 whole entry, looked up): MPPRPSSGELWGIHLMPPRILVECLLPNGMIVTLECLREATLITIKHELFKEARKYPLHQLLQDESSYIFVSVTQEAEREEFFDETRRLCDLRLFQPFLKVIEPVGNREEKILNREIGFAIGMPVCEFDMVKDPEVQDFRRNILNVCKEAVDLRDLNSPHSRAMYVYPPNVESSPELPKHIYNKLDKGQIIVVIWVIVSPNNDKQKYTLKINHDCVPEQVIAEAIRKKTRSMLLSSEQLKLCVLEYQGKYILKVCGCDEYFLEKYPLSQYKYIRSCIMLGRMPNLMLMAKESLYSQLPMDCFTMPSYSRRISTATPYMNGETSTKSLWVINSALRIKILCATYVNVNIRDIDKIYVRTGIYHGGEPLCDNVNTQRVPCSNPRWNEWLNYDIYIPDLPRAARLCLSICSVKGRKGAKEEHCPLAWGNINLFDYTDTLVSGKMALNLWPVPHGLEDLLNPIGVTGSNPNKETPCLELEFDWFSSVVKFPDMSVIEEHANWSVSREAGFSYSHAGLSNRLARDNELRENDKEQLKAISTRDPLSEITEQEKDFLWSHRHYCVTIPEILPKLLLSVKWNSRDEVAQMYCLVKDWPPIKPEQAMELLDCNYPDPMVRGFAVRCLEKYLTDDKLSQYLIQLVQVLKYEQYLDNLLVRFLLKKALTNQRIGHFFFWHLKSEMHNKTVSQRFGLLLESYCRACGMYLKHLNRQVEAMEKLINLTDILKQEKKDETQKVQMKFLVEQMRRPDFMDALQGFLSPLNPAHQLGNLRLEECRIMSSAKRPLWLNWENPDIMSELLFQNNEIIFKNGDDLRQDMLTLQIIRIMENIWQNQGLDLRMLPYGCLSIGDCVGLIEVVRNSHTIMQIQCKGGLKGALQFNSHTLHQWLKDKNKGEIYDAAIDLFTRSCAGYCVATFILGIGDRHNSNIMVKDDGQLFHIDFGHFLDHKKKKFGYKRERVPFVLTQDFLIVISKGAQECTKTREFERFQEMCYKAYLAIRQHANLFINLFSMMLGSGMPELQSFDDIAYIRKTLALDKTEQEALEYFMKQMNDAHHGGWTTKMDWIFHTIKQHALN

Compound | IC50 [1] [nM] | IC50 [2] [nM]
CN(C)C1CCN(Cc2cc3nc(-c4ccc(O)c5nccn45)nc(N4CCOCC4)c3s2)CC1 | 593 | 
Cn1c(CN2CC(C3CCOCC3)C2)nc2c(N3CCOCC3)nc(-n3c(C4CC4)nc4ccccc43)nc21 | 472 | 
CN(C)C1CCN(Cc2cc3nc(-n4ccc5cnccc54)nc(N4CCOCC4)c3s2)CC1 | 207 | 
CCc1nc2ccccc2n1-c1nc(N2CCOCC2)c2nc(C(=O)C3CCN(C(C)(C)C(=O)OC)CC3)n(C)c2n1 | 83 | 0.61
CCc1nc2ccccc2n1-c1nc(N2CCOCC2)c2nc(CC3CN(C4CCS(=O)(=O)CC4)C3)n(C)c2n1 | 82.5 | 
Cn1c(CN2CCC(C(C)(C)O)CC2)nc2c(N3CCOCC3)nc(-c3cnc(N)c4ccccc34)nc21 | 245 | 
CC(C)c1nc2ccccc2n1-c1nc(N2CCOCC2)c2nc(-c3cccnc3)n(C)c2n1 | 190 | 
COc1cccc(-c2nc3c(N4CCOCC4)nc(-n4c(C(C)C)nc5ccccc54)nc3n2C)c1 | 729 | 
CC(C)(C(N)=O)N1CCN(Cc2nc3nc(-c4cccc5nccn45)nc(N4CCOCC4)c3s2)CC1 | 1500 | 
CC(C)c1nc2ccccc2n1-c1nc(N2CCOCC2)c2nc(CN3CCN(C(C)(C)CO)CC3)[nH]c2n1 | 264 | 
Cc1c(CN2CCN(C(C)(C)C(N)=O)CC2)sc2c(N3CCOCC3)nc(-c3cncc4[nH]ccc34)nc12 | 52.2 | 
CCc1nc2ccccc2n1-c1nc(N2CCOCC2)c2nc(CC(=O)N3CCC(C(C)(C)O)CC3)sc2n1 | 132 | 
COC(C)(C)C1CCN(Cc2nc3c(N4CCOCC4)nc(-c4c(C)oc5ccccc45)nc3n2C)CC1 | 1200 | 
CCc1nc2ccccc2n1-c1nc(N2CCOCC2)c2nc(CCN3CCOCC3(C)C)n(C)c2n1 | 485 | 
CCc1nc2ccccc2n1-c1nc(N2CCOCC2)c2nc(CC3CN(C(C)(C)C(N)=O)C3)n(C)c2n1 | 104 | 1.08
Cn1c(CN2CCC(C(C)(C)O)CC2)nc2c(N3CCOCC3)nc(-c3n[nH]c4ccccc34)nc21 | 2790 | 
c1cc(-c2nc(N3CCOCC3)c3sc(CN4CCC(N5CCOCC5)CC4)cc3n2)c2ccncc2c1 | 5350 | 
CCc1nc2ccccc2n1-c1nc(N2CCOCC2)c2nc(CN3C[C@@H]4C[C@H]3CN4C(C)(C)CO)n(C)c2n1 | 218 | 
CCc1nc2ccccc2n1-c1nc(N2CCOCC2)c2nc(CN3CCN(C(C)(C)CO)CC3)[nH]c2n1 | 215 | 
Cc1nc2ccccc2n1-c1nc(N2CCOCC2)c2oc(CN3CCN(C(C)(C)C(N)=O)CC3)cc2n1 | 175 | 
CC(C)(C(N)=O)N1CCN(Cc2nc3c(N4CCOCC4)nc(-c4cncc5[nH]ccc45)nc3s2)CC1 | 41.6 | 
